Laboratory results: patent publication US5541183A, “Ginkgolide derivatives” (priority 1993, dated 1996)
Read-outs that look alike come from different tables or passages of the source.

What was measured:
PAF induced Lethality = PAF induced Lethality in Mice; format: in vivo; settings: 10 mg/kg intraperitoneally, 2 minutes before PAF 10 μg/kg I.V.; alive after 2 hours; control 0
Protocol: Pharmacology Example 5: PAF induced Lethality in Mice
PAF given I.V. (10 μg/kg) to mice causes an immediate hypotensive shock leading to death in 1 hour or less. Compounds were given intraperitoneally (dose of compounds : 10 mg/kg) at 2 minutes before the PAF challenge. Animals alive after 2 hours were counted and the activity of test compounds expressed as % survival corrected for any control (saline treated) animals which survived the PAF challenge.

[1] = test system: PAF-induced rabbit platelet aggregation; assay: PAF-induced rabbit platelet aggregation; format: cell-based, rabbit (New Zealand white); settings: Oryctolagus cuniculus, read-out: IC50, inhibition of PAF-induced rabbit platelet aggregation
Protocol: Pharmacology Example 1: PAF-induced rabbit platelet aggregation
Blood was collected from the ear artery of a male New Zealand white rabbit and mixed with 3.8% sodium citrate in a 9:1 volume ratio. Platelet rich plasma (PRP) was obtained by centrifugation of the blood at 150 g for 10 min at room temperature. The number of platelets was adjusted to 3×10^8 platelets/ml with platelet poor plasma. Platelet aggregation was monitored by continuous recording of light transmission in a dual-channel aggregometer (Chrono-Log 560-VS) coupled with a two channel recorder (Chrono-Log 707). Stirred PRP was treated with various concentrations of the test compounds or vehicle (0.5% DMSO) for 2 min and then PAF(5×10^-9 M) was added to induce platelet aggregation.
Inhibition values were calculated by comparing the extent of aggregation obtained in the presence of the vehicle alone (0.5% DMSO) and in the presence of a test compound. Log concentration-response curves were generated and the IC50 values were determined by regression analysis.
Table 1 lists results from this assay for inhibition of PAF-induced rabbit platelet aggregation for illustrative examples of the compounds of this invention.

bronchial eosinophilia = assay: aeroallergen-induced bronchial infiltration of eosinophils in the bronchoalveolar lavage fluid; format: in vivo, guinea pig (Hartley strain); settings: 30 mg/kg p.o., + 4h after aeroallergen challenge; for % Inhibition of bronchial eosinophilia: at 24 hours; for Eosinophils in BALF (Mean ± SEM): counted at 24 hours, vehicle 927 ± 131
Protocol: Pharmacology Example 4: The aeroallergen-induced bronchial infiltration of eosinophils in the bronchoalveolar lavage fluid.
Adult, male Hartley-strain guinea pigs weighing 492-735 g were sensitized by intraperitoneal injection of 10 μg ovalbumin (OA) mixed in 100-mg aluminum hydroxide. And guinea pigs were pretreated with pyrilamine (1.0 mg/kg) intraperitoneally 30 min. before aeroallergen challenge. Individual guinea pigs were placed in a two-liter glass chamber and exposed to a five aerosol of OA solution (0.5 mg/ml in saline containing 0.02% antifoal emulsion for a period of 10 min.).
4 hours after aero allergen challenge, the guinea pigs received either vehicle or compounds suspended in 1% acacia by oral garage.
24 hours after aero allergen challenge, the animals were euthanized with an i.p. overdose of pentobarbital sodium (100 mg/kg). The abdominal cavity was opened, and the animal was exsaguinated by cutting the abdominal aorta. A midline incision was made through the rib cage, exposing the heart and lungs.
The trachea was cannulated with an 18-gauge stainless steel feeding tube; 20 ml/kg of prewarmed (37° C.) physiological saline was instilled and the BALF was gently withdrawn.
BALF (amounting to 60-80% of the saline infused) was transferred to a 10 ml vacutainer containing 0.10 ml of 15% EDTA solution and centrifugated at 2400 rpm for 10 min.
The supernatant was poured off, and the cell pellet was suspended in physiological saline equal to the ratio of BALF recovered (ml) and physiological saline instilled in the lungs (ml), multiplied by two.
The eosinophils in BALF were counted by Unopette Test 5877.
The mean numbers of eosinophils±SEM in the BALF of compound-treated animals and corresponding control "vehicle"-treated animals were compared by Student's t-test. A P value of 0.05 or less was considered significant. Table 4 lists results from this assay for inhibition of bronchial eosinophilia for illustrative examples of this invention.

[2] = test system: Ag-induced bronchoconstriction; assay: Ag-induced bronchoconstriction in the guinea pig; format: in vivo, guinea pig (Hartley strain); settings: for ED50: Cavia porcellus, iv, 10 min, read-out: ID50, Ag-induced bronchoconstriction
Protocol: Pharmacology Example 3: Ag-induced bronchoconstriction
All experiments utilized male guinea pigs (Hartley strain), weighing 350 to 500 g. The animal was passively sensitized with rabbit anti-chicken egg albumin (1.3 mg/kg), 17-24 hrs before ovaibumin challenge. Passively sensitized animals were anesthetized with ethyl carbamate 1.5 g/kg, i.p.). An intratracheal cannula was inserted into trachea and indwelling catheters were inserted into the right carotid artery and left jugular vein. The animals were ventilated with a small animal respirator (UGO BASILE 7025, 70 breaths/min, 1 ml/stroke/100 g). To monitor dead or not, mean arterial pressure was measured continuously with a pressure transducer (Physiological Pressure Transducer, MICRON INSTRUMENT MP-15) connected to an amplifier (COULBOURN INSTRUMENT 572-25) and recorder (COULBOURN INSTRUMENT R14-18). The rate of bronchoconstriction was measured as an increase in lung overflow with a bronchospasm transducer (UGO BASILE 7020) from a side arm off the tracheal cannula, and expressed as a percentage of maximum broncoconstriction obtained by clamping off the tracheal cannular. Test compounds or vehicle (0.5% DMSO) were administered through the cannula into the jugular vein and ovalbumin (1.0 mg/kg, i.v.) was administered 10 minutes later. Bronchoconstriction response was compared to that obtained with control group treated with vehicle. Percent inhibition was calculated for each dose. If necessary, log dose-response curves were generated and the ID50 values were determined by regression analysis.

[3] = test system: PAF-induced bronchoconstriction; assay: PAF-induced bronchoconstriction in the guinea pig; format: in vivo, guinea pig (Hartley strain); settings: jugular vein, PAF 100 ng/kg i.v.
Protocol: Pharmacology Example 2: PAF-induced bronchoconstriction
All experiments utilized male guinea pigs (Hartley strain), weighing 350 to 450 g, that were anesthetized with ethyl carbamate (1.5 g/kg, i.p.). An intratracheal cannula was inserted into trachea and indwelling catheters were inserted into the right carotid artery and left jugular vein. The animals were ventilated with a small animal respirator (UGO BASILE 7025, 70 breaths/min, 1 ml/stroke/100 g). To monitor dead or not, mean arterial pressure was measured continuously with a pressure transducer (Physiological Pressure Transducer, MICRON INSTRUMENT MP-15) connected to an amplifier (COULBOURN INSTRUMENT 572-25) and recorder (COULBOURN INSTRUMENT R14-18). The rate of bronchoconstriction was measured as an increase in lung overflow with a bronchospasm transducer (UGO BASILE 7020) from a side arm off the tracheal cannula, and expressed as a percentage of maximum bronchoconstriction obtained by clamping off the tracheal cannula. Test compounds or vehicle (0.5% DMSO) were administered through the cannula into the jugular vein and PAF (100 ng/kg, i.v.) was administered. Bronchoconstriction response was compared to that obtained with control group treated with vehicle. Percent inhibition was calculated for each dose. Log dose-response curves were generated and the ID50 values were determined by regression analysis, and the results are presented in Table 2.
Table 2: Results for inhibition of PAF-induced bronchoconstriction in the guinea pig.

[4] = 0.1 mg/kg, jugular vein, ovalbumin 1.0 mg/kg i.v. 10 minutes later
[5] = 0.5 mg/kg, jugular vein, ovalbumin 1.0 mg/kg i.v. 10 minutes later
[6] = 1.0 mg/kg, jugular vein, ovalbumin 1.0 mg/kg i.v. 10 minutes later
[7] = jugular vein, ovalbumin 1.0 mg/kg i.v. 10 minutes later

SMILES | Survival rate (%) (PAF induced Lethality) | IC50 [1] [µM] | % Inhibition of bronchial eosinophilia (bronchial eosinophilia) [%] | Eosinophils in BALF (Mean ± SEM) (bronchial eosinophilia) | % inhibition of Ag-induced bronchoconstriction [2, 4] [%] | % inhibition of Ag-induced bronchoconstriction [2, 5] [%] | % inhibition of Ag-induced bronchoconstriction [2, 6] [%] | ED50 [2] [mg/kg] | % inhibition of PAF-induced bronchoconstriction ([3]; 0.01 mg/kg) [%] | % inhibition of PAF-induced bronchoconstriction ([3]; 0.02 mg/kg) [%] | % inhibition of PAF-induced bronchoconstriction ([3]; 0.04 mg/kg) [%] | ED50 ([3]; Cavia porcellus, iv, read-out: ID50, PAF-induced bronchoconstriction) [mg/kg] | IC50 ([1]; rabbit PRP, PAF 5×10^-9 M) [µM] | ED50 [2, 7] [mg/kg]
CC1C(=O)OC2C(O)C34C5CC(C(C)(C)C)C36C(OC(=O)C6OCc3ccc6c(c3)OCO6)OC4(C(=O)O5)C12O (centres unmarked) [Example 82, 10-piperonyloxy-Ginkgolide B] | 100 | 0.0507 | 34 | 616 ± 145 10^3 cells/m1 BALF | 60 | 94 | 100 | 0.09 |  |  |  |  |  | 
Cc1cnc(COC2C(=O)OC3OC45C(=O)OC6CC(C(C)(C)C)C32C64C(O)C2OC(=O)C(C)C25O)c(C)c1 (centres unmarked) [Example 96, 10-(3,5-dimethyl-2-pyridinyl) -methoxy-Ginkgolide] | 100 |  | 31 | 641 ± 134 10^3 cells/m1 BALF | 50 | 97 | 100 |  | 17 | 26 | 96 | 0.023 | 0.0245 | 0.1
CC1C(=O)OC2C(O)C34C5CC(C(C)(C)C)C36C(OC(=O)C6OCc3ccc(O)cn3)OC4(C(=O)O5)C12O (centres unmarked) [Example 115, 10-(2-(5-hydroxypyridinyl)-methoxy)-Ginkgolide B] | 100 |  |  |  | 65 | 100 | 100 |  |  |  |  |  | 0.152 | 0.08
